Results: paper PMC10892536, “Establishment and Validation of a Transdermal Drug Delivery System for the Anti-Depressant Drug Citalopram Hydrobromide” (Molecules, 2024)
Structures can show the parent of a compound that is named as a salt.

Test: In vivo pharmacokinetic study in rabbits
Conditions: oral gavage, n = 6
Method: CTH in the samples was quantified using a CoM 6000 HPLC system (CoMetro Technology, South Plainfield, NJ, USA) with a Comatex C18-AB column (250 × 4.6 mm, 5 μm; 115 Corp, Plainfield, NJ, USA) at 238 nm. The mobile phase was 0.1 mol/L acetonitrile, 0.1 mol/L ammonium acetate, and 0.01 mol/L heptane sodium sulfonate at a ratio of 5:5:1 (v/v). The flow rate was 1.0 mL/min, and the column temperature was 25 °C. All sample solutions were degassed and the injection volume was maintained at 20 μL [44, 53]. The particular application detail on the CoM 6000 HPLC system referred to a previous introduction in our laboratory.
The rabbits were assigned to one of the following three groups: A, B, or C. The abdominal hair of the rabbits in groups B and C was shaved off with an electric hair remover, and after cleaning the skin with normal saline, the optimized TDDS was applied to the abdomens of […] in group B, and blank patches were applied to the abdomens of rabbits in group C. Group A was administered CTH by oral gavage. The oral gavage procedure involved fixing the rabbits with an animal fixator and placing a special mouth expander with a rope attached to their mouth. An elastic rubber catheter was inserted through a small round hole in the mouth expander and pushed into the esophagus along the posterior pharyngeal wall. A solution consistent with the TDDS concentration was added. After gastric perfusion, the catheter and mouth opener were removed. Next, 1 mL aliquots of blood were collected from the marginal auricular vein of the experimental animals at different time intervals (1, 2, 4, 7, 12, and 24 h), placed in heparinized tubes, and centrifuged at 1500× g for 10 min. The resulting plasma supernatant was stored at −70 °C until further analysis. HPLC analyses were carried out by transferring 200 μL of the supernatant to a 1.5 mL polyethylene centrifuge tube. The tubes were then mixed with 300 μL acetonitrile, centrifuged at 2500× g for 10 min, and filtered through a 0.22 μm membrane.
The pharmacokinetic parameters of the conventional oral and sustained-release transdermal preparations were analyzed, including the maximum plasma concentration of the drug (Cmax), the time to reach the Cmax (Tmax), the mean residence time (MRT), and the area under the plasma concentration–time curve from time 0 to t (AUC(0-t)). Two-tailed Student’s t-tests were performed for the Cmax and AUC(0-t) analyses, and a non-parametric test was performed for the Tmax analysis. The AUC(0-t) was calculated using the trapezoidal rule.

- AUC(0-t): 8460.37 ± 996.43 ng/h/mL
- Cmax (rabbit, plasma): 4900 ± 396 ng/mL
- MRT (rabbit, plasma): 2.4 ± 0.25 h
- Tmax (rabbit, plasma): 1 h
Compound: CN(C)CCCC1(c2ccc(F)cc2)OCc2cc(C#N)ccc21 (stereo not shown) [CTH, citalopram hydrobromide]
